Entries after “also recorded” stand apart in the source; their conditions may differ. Non-standard residues stand in square brackets, D forms with d. Residues, ends and D or L forms follow the SMILES beside them. *: point of attachment. Dolaproine = CO[C@@H]([C@@H]1CCCN1)[C@@H](C)C(=O)O; Dil = CC[C@H](C)[C@H](NC)[C@@H](CC(=O)O)OC; X2 = C[C@@H](N*)[C@@H](O)c1ccccc1; NMeV = CN[C@H](C(=O)O)C(C)C
Experiments:
[1] = Chronic toxicity study, intravenous once every 3 weeks, rats; type: in vivo
From the text: (§1) Chronic toxicity study of Conjugate (1) product on Rats and rabbits.
(§2) • 1. Conjugate (I). • 2. Solubilizer Pluronic F127—in the amount, five-fold greater than the conjugate amount by weight. • 3. Diluent—Haemodes infusion solution. • 4. Dimethyl sulfoxide—in the amount of 5% of the prepared volume.
(§3) A 1 00 white ° inbred mature male rats about 2 months old with a body weight of 190-210 g and 60 sexually mature male rabbits of the Soviet Chinchilla breed about 2 months old with a body weight of […] were involved in the experiment.
(§4) The study design determined the intravenous administration of the test drugs once every 3 weeks for 3 months (a total of 4 injections) for the experiment of chronic toxicity determination. The local irritant effect of the products within intravenous administration will be studied together with the chronic toxicity study.
(§5) Each animal received the intravenous injection of the test drug or the reference drug in a volume not exceeding the acceptable volume for a single injection of 2 mL for rats and 20 mL for rabbits. The products were replaced with a Pluronic solution with DMSO in Haemodes in the control group of animals. The duration of observation for laboratory animals was 4 weeks (intermediate stage).
(§6) Apparent signs of intoxication were evaluated daily. During the study, integral indicators of animal health were recorded (see Tables 15. 16, 17).

[2] = Chronic toxicity study, intravenous once every 3 weeks, rabbits; type: in vivo
From the text: as §1, §2, §3, §4, §5, §6

CC[C@H](C)[C@@H]([C@@H](CC(=O)N1CCC[C@H]1[C@H](OC)[C@@H](C)C(=O)N[C@H](C)[C@@H](O)c1ccccc1)OC)N(C)C(=O)[C@@H](NC(=O)[C@@H](NC)C(C)C)C(C)C [MMAE, Monomethyl auristatin E] (H-[NMeV]V[Dil][Dolaproine]-X2)
Signs of intoxication ([1]; male rats, group 5, 10 μg/kg intravenously 1 time in 3 weeks): with impaired movement; also recorded: coordination, shortness of breath,; also recorded: diarrhea; also recorded: position, tremor, the hind limb; also recorded: the hindlimb paresis; rats No. 3-5 -; also recorded: decreased motor activity, the hind; also recorded: hindlimb paresis, porphyrin secretion | Signs of intoxication: loss of body weight ([1]; male rats, group 5, 10 μg/kg, 30 Apr. 2019): 15 to 20 g | Necropsy ([1]; male rats, group 5, 10 μg/kg, animals No. 1, 5, 6 and No. 3): severely inflated; adrenal glands were 2-fold; also recorded: increase; blood in the kidneys, pink renal pelvis; also recorded: hemorrhages and ulcers; the kidneys were pale,; also recorded: liver was granular, palish | Animals survived up to the second injection ([1]; rats, chronic, reference drug): only one rat animal | Chronic toxicity (overall) ([1]; rats, i.v. once every 3 weeks, intermediate stage 4 weeks): high toxicity | Signs of intoxication: the intake of feed and water ([2]; male rabbits, group 10, 5.4 μg/kg, after administration): decreased. About a day after | Signs of intoxication ([2]; male rabbits, group 10, 5.4 μg/kg, about a day after administration and before death): superficial respiration and adynamia | Necropsy ([2]; male rabbits, group 10, 5.4 μg/kg, rabbit No. 4): grayish tint; thymus had hemorrhages; | Animals survived up to the second injection ([2]; rabbits, chronic, reference drug): no rabbits | Chronic toxicity (overall) ([2]; rabbits, i.v. once every 3 weeks, intermediate stage 4 weeks): high toxicity

Reference: patent publication US12454527B2, “Conjugate monomethyl auristatin E to obtain a composition for treatment of prostate cancer” (priority 2019, dated 2025)
